Measured values: patent US9428464B2, “Kynurenine-3-monooxygenase inhibitors, pharmaceutical compositions, and methods of use thereof” (CHDI Foundation, Inc., priority 2011, dated 2016)

Test system: KMO
Experiment: KMO activity assay: L-Kynurenine hydroxylation to 3-Hydroxy-Kynurenine, quantified by LC/MS
Format: biochemical
Details: compound at 10 uM; footnote: some portion of activity of amides may be due to contribution of acid precursor
Method: A generalized procedure for monitoring L-Kynurenine (KYN) hydroxylation to form product 3-Hydroxy-Kynurenine (3OH-KYN) by LC/MS is described below. Product is quantified by multiple reaction monitoring using MS.
A method of monitoring L-Kynurenine (KYN) hydroxylation to form product 3-Hydroxy-Kynurenine (3OH-KYN) by LC/MS is described below. Product is quantified by multiple reaction monitoring.
• Compound: Stock concentrations: 10 mM in 100% DMSO • Enzyme: KMO enzyme prepared at Evotec via mitochondria isolation from CHO-GST HIS KMO cells • Substrate: L-Kynurenine (Sigma: Cat #K3750) • [stock concentration: 10 mM in 100 mM potassium phosphate buffer, pH 7.4]
A method of monitoring L-Kynurenine (KYN) hydroxylation to form 3-Hydroxy-Kynurenine (3OH-KYN) by LC/MS is described. Product is quantified by multiple reaction monitoring (MRM method).

How did the “% Inhibition at 10 uM” value turn out when CC1(C)CC(C(N)=O)C(C)(C)N1C(=O)c1cc(-c2ccc(Cl)c(Cl)c2)ncn1 (stereo not shown) [1-[6-(3,4-Dichloro-phenyl)-pyrimidine-4-carbonyl]-2,2,5,5-tetramemyl-pyrrolidine-3-carboxylic acid amide] was run?
The value was 98.27%.

For NC(=O)C1CCN(C(=O)c2cc(-c3ccc(Cl)c(Cl)c3)ncn2)C1 (stereo not shown) [1-[6-(3,4-Dichloro-phenyl)-pyrimidine-4-carbonyl]-pyrrolidine-3-carboxylic acid amide], which “% Inhibition at 10 uM” value is on record?
Its value is 101.835%.

O=C(NC1CC1)C1CCN(C(=O)c2cc(-c3ccc(Cl)c(Cl)c3)ncn2)C1 (stereo not shown) [1-[6-(3,4-Dichloro-phenyl)-pyrimidine-4-carbonyl]-pyrrolidine-3-carboxylic acid cyclopropylamide] was tested. Which “% Inhibition at 10 uM” value did it give?
Its value is 91.815%.

CNC(=O)C1CCN(C(=O)c2cc(-c3ccc(Cl)c(Cl)c3)ncn2)C1 (stereo not shown) [1-[6-(3,4-Dichloro-phenyl)-pyrimidine-4-carbonyl]-pyrrolidine-3-carboxylic acid methylamide] was tested. Which “% Inhibition at 10 uM” value did it give?
Its value is 83.065%.

For O=C(O)C1CCN(C(=O)c2cc(-c3ccc(Cl)c(Cl)c3)ncn2)C1 (stereo not shown) [1-[6-(3,4-dichloro-phenyl)-pyrimidine-4-carbonyl]-pyrrolidine-3-carboxylic acid], which “% Inhibition at 10 uM” value is on record?
The value was 101.855%.

Which “% Inhibition at 10 uM” value does the source give for CON=C(C)c1cc(-c2cccc(Cl)c2)ncn1 [1-[6-(3-Chloro-phenyl)-pyrimidin-4-yl]-ethanone O-methyl-oxime] here?
Its value is 102.2%.

CC(=O)c1cc(-c2cccc(Cl)c2)ncn1 [1-[6-(3-Chloro-phenyl)-pyrimidin-4-yl]-ethanone] was tested. Which “% Inhibition at 10 uM” value did it give?
Its value is 97.49%.

How did the “% Inhibition at 10 uM” value turn out when O=C(CCN1CCCC1)N1CCN(C(=O)c2cc(-c3ccc(Cl)c(Cl)c3)ncn2)CC1 [1-{4-[6-(3,4-Dichloro-phenyl)-pyrimidine-4-carbonyl]-piperazin-1-yl}-3-pyrrolidin-1-yl-propan-1-one] was run?
Its value is 68.48%.

With CC(=O)N1CCN(C(=O)c2cc(-c3ccc(Cl)c(Cl)c3)ncn2)CC1 [1-{4-[6-(3,4-Dichloro-phenyl)-pyrimidine-4-carbonyl]-piperazin-1-yl}-ethanone] as the compound, how does the “% Inhibition at 10 uM” value read?
Its value is 100.06%.

O=C(c1cc(-c2ccc(Cl)c(Cl)c2)ncn1)N1CCN2C(=O)CCC2C1 (stereo not shown) [2-[6-(3,4-Dichloro-phenyl)-pyrimidine-4-carbonyl]-hexahydro-pyrrolo[1,2-a]pyrazin-6-one] was tested. Which “% Inhibition at 10 uM” value did it give?
Its value is 97.22%.

With CC(C)COC(=O)c1cc(-c2ccc(Cl)c(Cl)c2)ncn1 [2-methylpropyl 6-(3,4-dichlorophenyl)pyrimidine-4-carboxylate] as the compound, how does the “% Inhibition at 10 uM” value read?
The value was 100%.

How did the “% Inhibition at 10 uM” value turn out when O=C(NS(=O)(=O)c1cccc(Cl)c1)c1cc(-c2ccc(Cl)c(Cl)c2)ncn1 [3-Chloro-N-[6-(3,4-dichloro-phenyl)-pyrimidine-4-carbonyl]-benzenesulfonamide] was run?
The value was 102.26%.

For O=C(NS(=O)(=O)c1cccc(Cl)c1)c1cc(-c2cccc(Cl)c2)ncn1 [3-Chloro-N-[6-(3-chloro-phenyl)-pyrimidine-4-carbonyl]-benzenesulfonamide], which “% Inhibition at 10 uM” value is on record?
The value was 101.57%.

For O=C1OCc2c1ncnc2-c1ccc(Cl)c(Cl)c1 [4-(3,4-dichloro-phenyl)-5H-furo[3,4-d]pyrimidin-7-one], which “% Inhibition at 10 uM” value is on record?
The value was 94%.

O=C1CN(C(=O)c2cc(-c3ccc(Cl)c(Cl)c3)ncn2)CCN1CCN1CCOCC1 [4-[6-(3,4-Dichloro-phenyl)-pyrimidine-4-carbonyl]-1-(2-morpholin-4-yl-ethyl)-piperazin-2-one] was tested. Which “% Inhibition at 10 uM” value did it give?
Its value is 98.7%.

How did the “% Inhibition at 10 uM” value turn out when O=C1CN(C(=O)c2cc(-c3ccc(Cl)c(Cl)c3)ncn2)CCN1CCN1CCCC1 [4-[6-(3,4-Dichloro-phenyl)-pyrimidine-4-carbonyl]-1-(2-pyrrolidin-1-yl-ethyl)-piperazin-2-one] was run?
The value was 99.275%.

Which “% Inhibition at 10 uM” value does the source give for O=C1CN(C(=O)c2cc(-c3ccc(Cl)c(Cl)c3)ncn2)CCN1CC1CCOCC1 [4-[6-(3,4-Dichloro-phenyl)-pyrimidine-4-carbonyl]-1-(tetrahydro-pyran-4-ylmethyl)-piperazin-2-one] here?
The value was 99.91%.

Which “% Inhibition at 10 uM” value does the source give for CN1CCN(C(=O)c2cc(-c3ccc(Cl)c(Cl)c3)ncn2)CC1=O [4-[6-(3,4-Dichloro-phenyl)-pyrimidine-4-carbonyl]-1-methyl-piperazin-2-one] here?
Its value is 87.44%.

For CC1C(=O)NCCN1C(=O)c1cc(-c2ccc(Cl)c(Cl)c2)ncn1 (stereo not shown) [4-[6-(3,4-Dichloro-phenyl)-pyrimidine-4-carbonyl]-3-methyl-piperazin-2-one], which “% Inhibition at 10 uM” value is on record?
Its value is 97.9%.

O=C1CN(C(=O)c2cc(-c3ccc(Cl)c(Cl)c3)ncn2)CCN1 [4-[6-(3,4-Dichloro-phenyl)-pyrimidine-4-carbonyl]-piperazin-2-one] was tested. Which “% Inhibition at 10 uM” value did it give?
Its value is 101.6%.

With O=C1CN(C(=O)c2cc(-c3ccc(F)c(F)c3)ncn2)CCN1 [4-[6-(3,4-Difluoro-phenyl)-pyrimidine-4-carbonyl]-piperazin-2-one] as the compound, how does the “% Inhibition at 10 uM” value read?
Its value is 100.995%.

O=C1CN(C(=O)c2cc(-c3cccc(Br)c3)ncn2)CCN1 [4-[6-(3-Bromo-phenyl)-pyrimidine-4-carbonyl]-piperazin-2-one] was tested. Which “% Inhibition at 10 uM” value did it give?
Its value is 96.625%.

Which “% Inhibition at 10 uM” value does the source give for O=C1CN(C(=O)c2cc(-c3ccc(F)c(Cl)c3)ncn2)CCN1 [4-[6-(3-Chloro-4-fluoro-phenyl)-pyrimidine-4-carbonyl]-piperazin-2-one] here?
The value was 100.85%.

For O=C(N[C@H]1CCCc2ccccc21)c1cc(-c2ccc(Cl)c(Cl)c2)ncn1 [6-(3,4-Dichloro-phenyl)-pyrimidine-4-carboxylic acid (1,2,3,4-tetrahydro-naphthalen-1S-yl)-amide], which “% Inhibition at 10 uM” value is on record?
The value was 95.92%.

With O=C(NC1CN2CCC1CC2)c1cc(-c2ccc(Cl)c(Cl)c2)ncn1 (stereo not shown) [6-(3,4-Dichloro-phenyl)-pyrimidine-4-carboxylic acid (1-aza-bicyclo[2.2.2]oct-3-yl)-amide] as the compound, how does the “% Inhibition at 10 uM” value read?
Its value is 100.905%.

How did the “% Inhibition at 10 uM” value turn out when Cl.O=C(NCC12CCN(CC1)CC2)c1cc(-c2ccc(Cl)c(Cl)c2)ncn1 [6-(3,4-Dichloro-phenyl)-pyrimidine-4-carboxylic acid (1-aza-bicyclo[2.2.2]oct-4-ylmethyl)-amide hydrochloride salt] was run?
Its value is 65.78%.

With Cn1nc(NC(=O)c2cc(-c3ccc(Cl)c(Cl)c3)ncn2)c2ccccc21 [6-(3,4-Dichloro-phenyl)-pyrimidine-4-carboxylic acid (1-methyl-1H-indazol-3-yl)-amide] as the compound, how does the “% Inhibition at 10 uM” value read?
The value was 93.95%.

Cn1ccc(NC(=O)c2cc(-c3ccc(Cl)c(Cl)c3)ncn2)n1 [6-(3,4-Dichloro-phenyl)-pyrimidine-4-carboxylic acid (1-methyl-1H-pyrazol-3-yl)-amide] was tested. Which “% Inhibition at 10 uM” value did it give?
The value was 100.05%.

For O=C(NC1(c2ccccc2)CC1)c1cc(-c2ccc(Cl)c(Cl)c2)ncn1 [6-(3,4-Dichloro-phenyl)-pyrimidine-4-carboxylic acid (1-phenyl-cyclopropyl)-amide], which “% Inhibition at 10 uM” value is on record?
Its value is 96.68%.

How did the “% Inhibition at 10 uM” value turn out when CC(NC(=O)c1cc(-c2ccc(Cl)c(Cl)c2)ncn1)C1CCNCC1.Cl (stereo not shown) [6-(3,4-Dichloro-phenyl)-pyrimidine-4-carboxylic acid (1-piperidin-4-yl-ethyl)-amide hydrochloride salt] was run?
Its value is 85.09%.

CC1(C)CC(NC(=O)c2cc(-c3ccc(Cl)c(Cl)c3)ncn2)CC(C)(C)N1.Cl [6-(3,4-Dichloro-phenyl)-pyrimidine-4-carboxylic acid (2,2,6,6-tetramethyl-piperidin-4-yl)-amide hydrochloride salt] was tested. Which “% Inhibition at 10 uM” value did it give?
Its value is 99.59%.
